From patent US20100152114A1, “Antioxidant activity of GH-RH Antagonists” (priority 2008, published 2010)
Ends that are not written are not given here.

Tests used:
[1] = test system: GPX1; test: Western Blot of GPX1 in LNCaP cells; type: cell-based; details: 1 μM, 72 hour exposure, control R.I: 0.107
Protocol: (§1) FIG. 7: is a Western Blot analysis of expression of the antioxidant enzymes TRX1, NQ01, GPX1 and SOD1 in LNCaP prostate cancer cell line after 72 hour exposure to GHRH antagonist JMR-132 and GHRH(1-29)NH2 n=2.
(§2) Prostate cancer cells LNCaP and breast cancer cells MCF-7 were obtained from American Type Culture Collection (Manassas, Va.) and were cultured as described previously. The antibodies that detect P53, PCNA, GPX1, SOD1, NQ01, Thioredoxin 1, COX2 and COX IV were purchased from Cell Signalling (Danvers, Mass.). The antibodies that detect β actin, NFκB50, pNFκB50, caspase 3 and its cleaved form were purchased from Santa Cruz Biotechnology (Santa Cruz, Calif.). The antibodies against GHRH-R (batch number: SV95) and SV1 (batch number: JH 2317/5) were raised in our laboratory. The signals for the immunoreactive proteins were visualized in a Chemi Doc XRS system (Biorad, Hercules, Calif.). The western Blot assay as well the quantification analysis of the blots was performed as described previously.
(§3) LNCaP prostate cancer cell line cultured in vitro was exposed to 1 μM JMR-132 and GHRH(1-29)NH2. The expression levels of the detoxifying enzymes were measured by Western Blot. The GPX1 (M.W: 22 Kda) protein expression was higher in the cells exposed to GHRH (1-29)NH2 (R.I: 0.126) and lower in the cells incubated with GHRH antagonist JMR-132 (R.I: 0.035), as compared to control (R.I:0.107). […]

[2] = test system: SOD1; test: Western Blot of SOD1 in LNCaP cells; type: cell-based; details: 1 μM, 72 hour exposure, only detectable with GHRH (1-29)NH2
Protocol: as §1, §2, §3

Substance | GPX1 protein expression (R.I) [1] | SOD1 protein expression (R.I) [2]
GHRH(1-29)NH2 (YADAIFTNSYRKVLGQLSARKLLQDIMSR-NH2; UniProt P01286 32-60, looked up, fragment) [Growth Hormone-Releasing Hormone (1-29) amide, agonist peptide used for comparison with the antagonist] | 0.126 | 0.111
[PhAc^0-Tyr^1, D-Arg^2, Cpa^6, Ala^8, Har^9, Tyr(Me)^10, His^11, Abu^15, His^20, Nle^27, D-Arg^28, Har^29]hGH-RH(1-29)NH2 [JMR-132] | 0.035 | –
